Consider 24 compounds from ChEMBL document CHEMBL1156596, “Overcoming undesirable CYP1A2 inhibition of pyridylnaphthalene-type aldosterone synthase inhibitors: influence of heteroaryl derivatization on potency and selectivity” (J Med Chem, 2008).

What is called inhibition is the relative decrease from the control value, in per cent. The pIC50 is −log10 of the IC50, conventionally taken in molar units. Low values mean a large IC50, high ones a small IC50.

pIC50: −log10 of the molar value.

Series [1] concerns the target T1, CYP1A2 (Homo sapiens, UniProt P05177).
T1 sequence (P05177 whole entry): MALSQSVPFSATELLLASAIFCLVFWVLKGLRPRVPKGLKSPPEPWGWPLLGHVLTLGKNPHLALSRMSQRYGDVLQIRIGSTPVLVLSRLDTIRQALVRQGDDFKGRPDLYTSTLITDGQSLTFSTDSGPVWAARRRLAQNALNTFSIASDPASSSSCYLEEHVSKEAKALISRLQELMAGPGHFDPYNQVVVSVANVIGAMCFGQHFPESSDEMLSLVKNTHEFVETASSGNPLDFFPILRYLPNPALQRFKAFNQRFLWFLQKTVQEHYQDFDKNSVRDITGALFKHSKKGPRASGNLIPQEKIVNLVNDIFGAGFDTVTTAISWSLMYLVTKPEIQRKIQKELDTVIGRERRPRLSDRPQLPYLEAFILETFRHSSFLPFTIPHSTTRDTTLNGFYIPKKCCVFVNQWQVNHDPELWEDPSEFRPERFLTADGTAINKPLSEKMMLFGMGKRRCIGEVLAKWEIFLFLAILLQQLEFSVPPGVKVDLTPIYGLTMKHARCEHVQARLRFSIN
As to the kind of experiment: Inhibition of human recombinant CYP1A2 expressed in insect microsomes at 2 uM. Format: ADME, Microsome.

For series [2], the species on record is Homo sapiens. As to the kind of experiment: Selectivity ratio of IC50 for human CYP11B1 to IC50 for human CYP11B2.
Series [3] concerns the target T2, Cytochrome P450 11B2, mitochondrial (Homo sapiens, UniProt P19099).
T2 sequence (P19099 whole entry): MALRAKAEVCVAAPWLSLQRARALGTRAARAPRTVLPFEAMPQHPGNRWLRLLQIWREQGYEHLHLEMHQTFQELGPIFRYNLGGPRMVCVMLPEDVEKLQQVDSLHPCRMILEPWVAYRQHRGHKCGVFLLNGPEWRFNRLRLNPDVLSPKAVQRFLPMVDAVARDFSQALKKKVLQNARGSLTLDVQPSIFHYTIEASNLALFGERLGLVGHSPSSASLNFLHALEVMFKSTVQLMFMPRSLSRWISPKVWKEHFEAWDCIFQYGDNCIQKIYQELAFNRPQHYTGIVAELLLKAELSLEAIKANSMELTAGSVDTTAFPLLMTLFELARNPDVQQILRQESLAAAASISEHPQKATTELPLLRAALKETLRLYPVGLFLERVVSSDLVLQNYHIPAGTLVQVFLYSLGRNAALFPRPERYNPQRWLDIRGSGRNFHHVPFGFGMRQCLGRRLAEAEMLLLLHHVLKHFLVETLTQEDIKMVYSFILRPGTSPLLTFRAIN

Series [4] concerns the target T3, Cytochrome P450 11B1, mitochondrial (Homo sapiens, UniProt P15538).
T3 sequence (P15538 whole entry): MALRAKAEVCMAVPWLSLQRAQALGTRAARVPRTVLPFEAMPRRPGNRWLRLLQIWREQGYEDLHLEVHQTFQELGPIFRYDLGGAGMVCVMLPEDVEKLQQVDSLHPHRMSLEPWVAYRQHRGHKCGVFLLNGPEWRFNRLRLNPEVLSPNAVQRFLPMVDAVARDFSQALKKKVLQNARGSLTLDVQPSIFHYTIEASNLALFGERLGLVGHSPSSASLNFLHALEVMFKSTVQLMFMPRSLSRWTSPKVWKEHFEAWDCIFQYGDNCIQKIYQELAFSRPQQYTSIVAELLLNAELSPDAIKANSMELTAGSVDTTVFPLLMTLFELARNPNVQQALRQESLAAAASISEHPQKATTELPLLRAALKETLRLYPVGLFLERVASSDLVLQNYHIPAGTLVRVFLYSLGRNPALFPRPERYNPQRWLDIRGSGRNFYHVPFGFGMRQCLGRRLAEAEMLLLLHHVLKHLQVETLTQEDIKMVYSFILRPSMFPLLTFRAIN

For the compound `Cc1ccncc1-c1ccc2cc(C#N)ccc2c1`, the inhibition at 2 µM in series [1] came to 86%. Moreover, the Ratio IC50 in series [2] was found to be 87. Besides, the pIC50 in series [3] is 9.22; in series [4], 7.28.

Turning to `COC(=O)Cc1cncc(-c2ccc3cc(OC)ccc3c2)c1`, the Ratio IC50 in series [2] amounted to 29. For the same compound, the values for the pIC50 in series [3] and in series [4] were 8.16 and 6.70, respectively.

`COc1ccc2cc(-c3cncc(O)c3)ccc2c1`: the inhibition at 2 µM in series [1] amounted to 93%. In addition, in series [2], the Ratio IC50 worked out at 95. Moreover, the pIC50 in series [3] is 7.03; in series [4], 5.05.

For the compound `COc1ccc2cc(-c3cncc(C(C)OC)c3)ccc2c1` (stereo not drawn), the Ratio IC50 in series [2] came out at 50. Moreover, the figures for the pIC50 in series [3] and in series [4] were 9.70 and 8.00, respectively.

Consider `COc1ccc2cc(-c3cncc(CC(=O)O)c3)ccc2c1`, for which, in series [2], the Ratio IC50 was found to be 31. Besides, the pIC50 was 5.92 in series [3] and 4.42 in series [4].

In the case of `COc1ccc2cc(-c3cncc4ccccc34)c(C)cc2c1`, in series [1], the inhibition at 2 µM worked out at 45%. In addition, the Ratio IC50 in series [2] was 272. Moreover, the pIC50 in series [3] was 8.51; in series [4], 6.07.

As for `CCOc1cncc(-c2ccc3cc(OC)ccc3c2)c1`, the inhibition at 2 µM in series [1] came out at 85%. Besides, the Ratio IC50 in series [2] is 73. In addition, the pIC50 in series [3] was 8.29; in series [4] it was 6.43.

Regarding `COc1ccc2cc(-c3cccnc3)c(C)cc2c1`, the inhibition at 2 µM in series [1] is 93%. In addition, the Ratio IC50 in series [2] is 150. Further, the results for the pIC50 in series [3] and in series [4] were 8.15 and 5.98, respectively.

Turning to `COCc1cncc(-c2ccc3cc(OC)ccc3c2)c1`, the inhibition at 2 µM in series [1] is 83%. In series [2], the Ratio IC50 is 155. Besides, the pIC50 is 9.70 in series [3] and 7.51 in series [4].

On to `COc1ccc2cc(-c3cnccc3C)ccc2c1`, for which the inhibition at 2 µM in series [1] was 98%. For the same compound, in series [2], the Ratio IC50 was found to be 143. Further, the pIC50 is 9.10 in series [3] and 6.94 in series [4].

For `COC(=O)c1cncc(-c2ccc3cc(OC)ccc3c2)c1`, the Ratio IC50 in series [2] was 19. The pIC50 in series [3] was 9.10; in series [4], 7.82.

`Cc1nc2c([nH]1)c(=O)n(C)c(=O)n2Cc1ccco1` [FURAFYLLINE]: the inhibition at 2 µM in series [1] was found to be 55%.

Regarding `COc1ccc2cc(-c3cncc(CO)c3)ccc2c1`, the inhibition at 2 µM in series [1] turned out to be 93%. For the same compound, the Ratio IC50 in series [2] was determined as 68. Also, the negative-log IC50 (pIC50) in series [3] is 8.04; in series [4], 6.21.

In the case of `COc1ccc2cc(-c3cnccc3CO)ccc2c1`, the inhibition at 2 µM in series [1] is 92%. For the same compound, the Ratio IC50 in series [2] turned out to be 80. Besides, the negative logarithm of the IC50 (pIC50) is 7.66 in series [3] and 5.75 in series [4].

For the compound `N#Cc1ccc2c(c1)CCC(c1cccnc1)=C2`, the inhibition at 2 µM in series [1] was determined as 91%. Further, the Ratio IC50 in series [2] came to 103. The pIC50 in series [3] is 8.35; in series [4], 6.34.

Regarding `COCc1ccncc1-c1ccc2cc(OC)ccc2c1`, the inhibition at 2 µM in series [1] was 97%. Also, the Ratio IC50 in series [2] stood at 198. Besides, the pIC50 in series [3] is 8.66; in series [4], 6.36.

`COc1ccc2c(c1)CC(C)C(c1cncc3ccccc13)=C2` (stereo not drawn): in series [1], the inhibition at 2 µM worked out at 6%. For the same compound, the Ratio IC50 in series [2] was determined as 128. Moreover, the results for the pIC50 in series [3] and in series [4] were 9.30 and 7.19, respectively.

For `COc1ccc2c(c1)CCC(c1cccnc1)=C2`, the inhibition at 2 µM in series [1] amounted to 98%.

`COc1cncc(C2=Cc3ccc(OC)cc3CC2C)c1` (stereo not drawn): the inhibition at 2 µM in series [1] turned out to be 18%. Besides, the Ratio IC50 in series [2] stood at 83. The negative-log IC50 (pIC50) in series [3] was 8.92; in series [4], 7.00.

`COc1cncc(-c2cc3ccc(OC)cc3cc2C)c1`: the inhibition at 2 µM in series [1] stood at 91%. In series [2], the Ratio IC50 turned out to be 230. Also, the pIC50 in series [3] is 8.42; in series [4], 6.06.

Turning to `COc1ccc2cc(-c3cncc(-c4ccccc4)c3)ccc2c1`, the Ratio IC50 in series [2] is 32. Besides, the results for the pIC50 in series [3] and in series [4] were 8.32 and 6.82, respectively.

On to `COc1ccc2c(c1)CC(C)C(c1cccnc1)=C2` (stereo not drawn), for which the inhibition at 2 µM in series [1] worked out at 73%. Also, the Ratio IC50 in series [2] was determined as 79. This compound also showed a pIC50 in series [3] of 8.48.

Turning to `COc1ccc2cc(-c3cncc(C(N)=O)c3)ccc2c1`, the Ratio IC50 in series [2] stood at 442. Besides, the pIC50 in series [3] is 7.03; in series [4], 4.38.

On to `COc1ccc2cc(-c3cncc(C(C)O)c3)ccc2c1` (stereo not drawn), for which, in series [1], the inhibition at 2 µM amounted to 78%. The Ratio IC50 in series [2] is 198. The pIC50 in series [3] is 9.30; in series [4] it was 7.00.
